Test results published in PubChem BioAssay AID248 (DTP/NCI, 2004).
Several values for one entry are separate records, joined by “and”; a condition that tells them apart may be missing. Equal entries are not always repeated. Toxic doses and inconclusive results are not listed. No stated cut-off is given here; in the data, active means T/C of 150% or more; inactive means T/C below 125%.

Tested on: L1210 leukemia ip in BDF1 mice, survival T/C
Assay: NCI In Vivo Anticancer Drug Screen. Data for tumor model L1210 Leukemia (intraperitoneal) in B6D2F1 (BDF1) mice
Settings: endpoint: mean survival time, higher = longer survival
Summary of the method: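 Tumor was transplanted into mice, which were then dosed with test compound or vehicle alone. Survival was recorded for each group, and the treated figure was expressed relative to the control figure.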

[1] = dose: 100.0 mg/kg/injection, schedule: Q04DX003 (ip), vehicle: saline with Tween-80
[2] = dose: 200.0 mg/kg/injection, schedule: Q04DX003 (ip), vehicle: saline with Tween-80
[3] = dose: 400.0 mg/kg/injection, schedule: Q04DX003 (ip), vehicle: saline with Tween-80
[4] = dose: 25.6 mg/kg/injection, schedule: Q04DX002 (ip), vehicle: saline with Tween-80
[5] = dose: 64.0 mg/kg/injection, schedule: Q04DX002 (ip), vehicle: saline with Tween-80
[6] = dose: 160.0 mg/kg/injection, schedule: Q04DX002 (ip), vehicle: saline with Tween-80
[7] = dose: 400.0 mg/kg/injection, schedule: Q04DX002 (ip), vehicle: saline with Tween-80
[8] = dose: 100.0 mg/kg/injection, schedule: Q01DX001 (ip), vehicle: carboxymethylcellulose (CMC)
[9] = dose: 100.0 mg/kg/injection, schedule: Q01DX009 (ip), vehicle: Klucel (hydroxypropylcellulose) (HPC)
[10] = dose: 200.0 mg/kg/injection, schedule: Q01DX001 (ip), vehicle: carboxymethylcellulose (CMC)
[11] = dose: 200.0 mg/kg/injection, schedule: Q01DX009 (ip), vehicle: Klucel (hydroxypropylcellulose) (HPC)
[12] = dose: 400.0 mg/kg/injection, schedule: Q01DX001 (ip), vehicle: carboxymethylcellulose (CMC)
[13] = dose: 100.0 mg/kg/injection, schedule: Q04DX003 (ip), vehicle: Klucel (hydroxypropylcellulose) (HPC)
[14] = dose: 200.0 mg/kg/injection, schedule: Q04DX003 (ip), vehicle: Klucel (hydroxypropylcellulose) (HPC)
[15] = dose: 100.0 mg/kg/injection, schedule: Q04DX003 (ip), vehicle: saline
[16] = dose: 200.0 mg/kg/injection, schedule: Q04DX003 (ip), vehicle: saline

Measured: T/C

[Cl][Fe]([Cl])[Cl]
inactive: dose: 12.5 mg/kg/injection, schedule: Q01DX009 (ip), vehicle: saline with Tween-80 98 % of control | dose: 25.0 mg/kg/injection, schedule: Q01DX009 (ip), vehicle: saline with Tween-80 94 % of control | dose: 75.0 mg/kg/injection, schedule: Q01DX001 (ip), vehicle: saline 96 % of control | [1] 93 % of control | dose: 150.0 mg/kg/injection, schedule: Q01DX001 (ip), vehicle: saline 93 % of control | [2] 94 % of control | dose: 300.0 mg/kg/injection, schedule: Q01DX001 (ip), vehicle: saline 98 % of control | [3] 105 % of control

c1ccc(COP(c2ccccc2)c2ccccc2)cc1
inactive: [4] 100 % of control | [5] 96 % of control | [6] 100 % of control | [7] 100 % of control

O=C1c2cc([N+](=O)[O-])ccc2-c2ccc([N+](=O)[O-])cc21
inactive: dose: 50.0 mg/kg/injection, schedule: Q01DX009 (ip), vehicle: Klucel (hydroxypropylcellulose) (HPC) 95 % of control and 90 % of control | [8] 89 % of control | [9] 109 % of control | dose: 100.0 mg/kg/injection, schedule: Q04DX002 (ip), vehicle: Klucel (hydroxypropylcellulose) (HPC) 101 % of control | [10] 87 % of control | [11] 98 % of control and 102 % of control | dose: 200.0 mg/kg/injection, schedule: Q04DX002 (ip), vehicle: Klucel (hydroxypropylcellulose) (HPC) 113 % of control | [12] 97 % of control | dose: 400.0 mg/kg/injection, schedule: Q04DX002 (ip), vehicle: Klucel (hydroxypropylcellulose) (HPC) 89 % of control

O=C(O)c1cc(O)c(O)cc1O
inactive: [8] 98 % of control | [10] 108 % of control | [12] 92 % of control

Nc1ccc(Cc2ccncc2)cc1
inactive: dose: 25.0 mg/kg/injection, schedule: Q01DX001 (ip), vehicle: carboxymethylcellulose (CMC) 105 % of control | dose: 25.0 mg/kg/injection, schedule: Q01DX009 (ip), vehicle: carboxymethylcellulose (CMC) 102 % of control and 92 % of control | dose: 25.0 mg/kg/injection, schedule: Q04DX002 (ip), vehicle: carboxymethylcellulose (CMC) 94 % of control | dose: 25.0 mg/kg/injection, schedule: Q04DX003 (ip), vehicle: carboxymethylcellulose (CMC) 97 % of control | dose: 50.0 mg/kg/injection, schedule: Q01DX001 (ip), vehicle: carboxymethylcellulose (CMC) 102 % of control | dose: 50.0 mg/kg/injection, schedule: Q01DX009 (ip), vehicle: carboxymethylcellulose (CMC) 95 % of control and 98 % of control | dose: 50.0 mg/kg/injection, schedule: Q04DX002 (ip), vehicle: carboxymethylcellulose (CMC) 93 % of control and 103 % of control | dose: 50.0 mg/kg/injection, schedule: Q04DX003 (ip), vehicle: carboxymethylcellulose (CMC) 100 % of control | [8] 103 % of control | dose: 100.0 mg/kg/injection, schedule: Q01DX009 (ip), vehicle: carboxymethylcellulose (CMC) 94 % of control and 103 % of control | dose: 200.0 mg/kg/injection, schedule: Q04DX002 (ip), vehicle: carboxymethylcellulose (CMC) 94 % of control

COC(=O)CCN1CC1(C)C (stereo not drawn)
inactive: dose: 25.0 mg/kg/injection, schedule: Q04DX003 (ip), vehicle: Klucel (hydroxypropylcellulose) (HPC) 96 % of control | dose: 50.0 mg/kg/injection, schedule: Q04DX003 (ip), vehicle: Klucel (hydroxypropylcellulose) (HPC) 98 % of control | [13] 96 % of control

C[Si](C)(C)Cc1ccc(F)cc1
inactive: [4] 90 % of control | [5] 93 % of control | [1] 93 % of control | [6] 97 % of control | [2] 97 % of control | [7] 97 % of control | [3] 93 % of control

Cc1cc(Br)c2ccccc2c1N(CC(=O)O)S(=O)(=O)c1ccccc1
inactive: dose: 100.0 mg/kg/injection, schedule: Q01DX001 (ip), vehicle: saline sonified 97 % of control | dose: 100.0 mg/kg/injection, schedule: Q01DX009 (ip), vehicle: saline with Tween-80 91 % of control | dose: 200.0 mg/kg/injection, schedule: Q01DX001 (ip), vehicle: saline sonified 100 % of control | dose: 200.0 mg/kg/injection, schedule: Q01DX009 (ip), vehicle: saline with Tween-80 91 % of control | dose: 400.0 mg/kg/injection, schedule: Q01DX001 (ip), vehicle: saline sonified 97 % of control | dose: 400.0 mg/kg/injection, schedule: Q01DX009 (ip), vehicle: saline with Tween-80 97 % of control

c1ccc2c(C3OCC4(CCCCC4)CO3)cccc2c1
inactive: [9] 97 % of control | [13] 101 % of control | [11] 97 % of control | [14] 105 % of control | dose: 400.0 mg/kg/injection, schedule: Q01DX009 (ip), vehicle: Klucel (hydroxypropylcellulose) (HPC) 92 % of control | dose: 400.0 mg/kg/injection, schedule: Q04DX003 (ip), vehicle: Klucel (hydroxypropylcellulose) (HPC) 111 % of control

CC1(C)N=C(N)N=C(N)N1c1cccc(CCCc2ccccc2)c1
inactive: dose: 1.56 mg/kg/injection, schedule: Q01DX001 (ip), vehicle: saline 98 % of control | dose: 3.12 mg/kg/injection, schedule: Q01DX001 (ip), vehicle: saline 91 % of control | dose: 6.25 mg/kg/injection, schedule: Q01DX001 (ip), vehicle: saline 88 % of control | dose: 25.0 mg/kg/injection, schedule: Q01DX001 (ip), vehicle: saline 89 % of control

CN1OCC2CCCC(c3ccccc3)C21 (stereo not drawn)
inactive: [13] 97 % of control | [14] 100 % of control

CCC(C(N)=O)N1C(=O)C2C3CCC(C3)C2C1=O (stereo not drawn)
inactive: [1] 90 % of control | [15] 107 % of control | [2] 100 % of control | [16] 107 % of control | [3] 100 % of control | dose: 400.0 mg/kg/injection, schedule: Q04DX003 (ip), vehicle: saline 98 % of control

CN(C)CC1C2C=CC(C2)C1CN(C)C (stereo not drawn)
inactive: [15] 96 % of control | [16] 91 % of control

[C-]#[N+]CCCCCC
inactive: dose: 3.12 mg/kg/injection, schedule: Q04DX003 (sc), vehicle: olive oil, sesame oil, peanut oil 101 % of control | dose: 4.21 mg/kg/injection, schedule: Q01DX009 (ip), vehicle: olive oil, sesame oil, peanut oil 92 % of control | dose: 6.25 mg/kg/injection, schedule: Q04DX003 (sc), vehicle: olive oil, sesame oil, peanut oil 93 % of control | dose: 8.43 mg/kg/injection, schedule: Q01DX009 (sc), vehicle: olive oil, sesame oil, peanut oil 112 % of control | dose: 12.5 mg/kg/injection, schedule: Q04DX003 (sc), vehicle: olive oil, sesame oil, peanut oil 88 % of control | dose: 16.87 mg/kg/injection, schedule: Q01DX009 (sc), vehicle: olive oil, sesame oil, peanut oil 112 % of control | dose: 18.0 mg/kg/injection, schedule: Q04DX003 (sc), vehicle: other 104 % of control | dose: 28.0 mg/kg/injection, schedule: Q04DX003 (sc), vehicle: other 101 % of control | dose: 40.0 mg/kg/injection, schedule: Q04DX003 (sc), vehicle: other 108 % of control | dose: 60.0 mg/kg/injection, schedule: Q04DX003 (sc), vehicle: olive oil, sesame oil, peanut oil 111 % of control | dose: 90.0 mg/kg/injection, schedule: Q04DX003 (sc), vehicle: olive oil, sesame oil, peanut oil 100 % of control | dose: 135.0 mg/kg/injection, schedule: Q04DX003 (sc), vehicle: olive oil, sesame oil, peanut oil 109 % of control
